Reference: patent US20140296354A1, “SYNTHESIS OF PEPTOID-BASED SMALL MOLECULAR GELATORS FROM MULTIPLE COMPONENT REACTIONS” (OLD DOMINION UNIVERSITY RESEARCH FOUNDATION, priority 2013, published 2014)
Non-standard residues stand in square brackets, D forms with d. Residues, ends and D or L forms follow the SMILES beside them. *: point of attachment. Nphe = O=C(O)CNCc1ccccc1; Bz = O=C(c1ccccc1)*

Legend:
[1] = Gelation test in solvents at room temperature; assay type: physicochemical; design: key: I, insoluble; P, precipitating; S, soluble at ~20 mg/mL; G, gel at room temperature; number is minimum gelation concentration; settings: Table 3
Experimental: (§1) Gelation tests were performed by adding incremental amounts of compounds to a solvent or solvent system at room temperature and observing the results (i.e., gel formation, solubility of compounds, insolubility of compounds, or formation of a precipitate). […] The term “precipation” means that the compound dissolves upon heating and sonicating, however, it crashes out of solution when the heat is removed.
(§2) After the compounds were synthesized, they were screened for gelation properties. […] For the compounds with new chiral centers, they formed gels in aqueous environment preferentially.

[2] = Gelation test in solvents at room temperature; assay type: physicochemical; design: key to Gelation test result: I, insoluble; P, precipitating; S, soluble at ~20 mg/mL; G, gel at room temperature; number is minimum gelation concentration; settings: for Gelation result / preliminary MGC (stable gel) / concentration of slightly unstable or partial gel (UG): Table 3
Experimental: as §1, §2

[3] = Gelation test in solvents at room temperature; assay type: physicochemical; design: key: S, soluble (starting test at 20 mg/mL); I, insoluble; P, precipitate; G, stable gel, the numbers after G are preliminary MGCs in mg/mL; UG, slightly unstable gels or partial gels, concentrations are 20 mg/mL unless otherwise noted; settings: Table 3
Experimental: as §1, §2

[4] = DMSO:H2O (1:1), room temperature
[5] = DMSO:H2O (1:2), room temperature
[6] = EtOH:H2O (1:1), room temperature
[7] = EtOH:H2O (1:2), room temperature

Gelation result ([1]; Hexane) | Gelation result ([3]; DMSO:H2O 1:1) | Gelation result ([3]; DMSO:H2O 1:2) | Gelation result ([3]; EtOH:H2O (1:2)) | preliminary MGC (stable gel) ([2]; DMSO:H2O 1:1) [mg/mL] | Gelation result ([3]; Water) | preliminary MGC (stable gel) ([2]; EtOH:H2O (1:2)) [mg/mL] | SMILES | Gelation result ([2]; EtOH) | further results
I | P | P | P |  |  |  | CCOC(=O)CNC(=O)CN(Cc1ccccc1)C(=O)c1ccc(C(=O)N(CC(=O)NCC(=O)OCC)Cc2ccccc2)cc1 [Compound 30] | S (S, soluble (starting test at 20 mg/mL)) | Gelation result ([1]; Water): I
I | G | G |  | 10.0 | P |  | COC1OC2COC(c3ccccc3)OC2C(O)C1N(CC(=O)NC1CCCCC1)C(C)=O (stereo not drawn) [Compound 31] |  | preliminary MGC (stable gel) ([2]; DMSO:H2O 1:2): 10.0 mg/mL; Gelation result ([2]; EtOH:H2O (1:2)): S (S, soluble (starting test at 20 mg/mL)); preliminary MGC (stable gel) ([2]; EtOH): 10.0 mg/mL; Gelation result ([3]; EtOH): G
I | P | P | P |  | P |  | COc1ccc(CN(CC(=O)NCC(=O)O)C(=O)c2ccc(Br)cc2)cc1 [Compound 42] | S (S, soluble (starting test at 20 mg/mL)) | 
I |  | P | G |  | UG | 15.0 | COc1ccc(C(C(=O)NC2CCCCC2)N(Cc2ccccc2)C(C)=O)cc1 (racemic) [Compound 37] | S (S, soluble (starting test at 20 mg/mL)) | concentration of slightly unstable or partial gel (UG) ([2]; Water): 17000 µg/mL
 |  |  |  |  |  |  | CCOC(=O)CNC(=O)CN(Cc1ccccc1)C(=O)c1ccccc1 [Compound 22, Ethyl 2-(2-(N-benzylbenzamido)acetamido)acetate] (Bz-[Nphe]-Gly-OEt) |  | Gelation test result [2, 4]: S (S, soluble at ~20 mg/mL); Gelation test result [2, 5]: P; Gelation test result ([2]; EtOH, room temperature): P; Gelation test result [2, 6]: P; Gelation test result [2, 7]: P; Gelation test result ([2]; H2O, room temperature): S (S, soluble at ~20 mg/mL); Gelation test result ([2]; Hexane, room temperature): S (S, soluble at ~20 mg/mL)
 |  |  |  |  |  |  | C[C@H](c1ccccc1)N(CC(=O)NC1CCCCC1)C(=O)c1ccc(Br)cc1 [Compound 19, (R)-4-bromo-N-(2-(cyclohexylamino)-2-oxoethyl)-N-(1-phenylethyl)benzamide] |  | Gelation test result [2, 4]: G; minimum gelation concentration [2, 4]: 20.0 mg/mL; Gelation test result [2, 5]: P; Gelation test result ([2]; EtOH, room temperature): S (S, soluble at ~20 mg/mL); Gelation test result [2, 6]: P; Gelation test result [2, 7]: P; Gelation test result ([2]; H2O, room temperature): P; Gelation test result ([2]; Hexane, room temperature): S^(c) (S, soluble at ~20 mg/mL); melting point: 140 to 142 °C
I | UG | P | P |  | P |  | COc1ccc(CN(CC(=O)Nc2ccc(Oc3ccc(NC(=O)CN(Cc4ccc(OC)cc4)C(=O)c4ccc(Br)cc4)cc3)cc2)C(=O)c2ccc(Br)cc2)cc1 [Compound 36] | S (S, soluble (starting test at 20 mg/mL)) | concentration of slightly unstable or partial gel (UG) ([2]; DMSO:H2O 1:1): 20000 µg/mL
 | P | P | P |  | P |  | O=C(CN(C(=O)c1ccccc1)c1ccccc1)NC1CCCCC1 [Compound 39] | S (S, soluble (starting test at 20 mg/mL)) | Gelation result ([3]; Hexane): P
I | G | G | G | 20.0 |  | 10.0 | COc1ccc(CN(CC(=O)NCS(=O)(=O)c2ccc(C)cc2)C(=O)c2ccc(Br)cc2)cc1 [Compound 35] |  | Gelation result ([1]; Water): I; preliminary MGC (stable gel) ([2]; DMSO:H2O 1:2): 20.0 mg/mL; Gelation result ([3]; EtOH): P
I | G | UG | G | 20.0 | P | 20.0 | CCOC(=O)CNC(=O)CN(C(=O)c1ccc(Br)cc1)C1C(OCC)OC2COC(c3ccccc3)OC2C1O (stereo not drawn) [Compound 32] | S (S, soluble (starting test at 20 mg/mL)) | concentration of slightly unstable or partial gel (UG) ([2]; DMSO:H2O 1:2): 20000 µg/mL
